The values below come from patent US8580847B2, “Antrocin containing pharmaceutical compositions for inhibiting cancer cells” (Chaoyang University of Technology, priority 2010, dated 2013).

For data set [1], the system named is MCF-7 human breast carcinoma cells. Briefly: SRB cytotoxicity assay, MCF-7. The class given is cell-based. How it is done: (§1) MCF-7 and MDA-MB-231 breast tumor cell lines came from a pleural effusion of patients with invasive breast carcinoma. The MCF-10A cell line is a non-tumorigenic epithelial cell line. All three human cell lines were provided by the American Type Culture Collection (ATCC). In the present invention, MDA-MB-231 cells were grown in Dulbecco's Modified Eagle's Medium (DMEM) media with 10% FBS, 2 mM glutamine, 100 μg/ml streptomycin in a 37° C. humidified atmosphere with CO2. MCF-7 were cultured in DMEM media supplemented with 2 mM L-glutamine, 100 μg/ml streptomycin, 10% fetal bovine serum, 0.04 UI/ml insulin in a humidified atmosphere at 37° C. containing 5% CO2. MCF10A cells were maintained in DMEM containing 5% horse serum, 2 mM L-glutamine, 20 μg/ml gentamycin, 20 ng/ml epidermal growth factor, 100 ng/ml cholera toxin, 0.25 UI/ml insulin and 0.5 μg/ml hydrocortisone held at 37° C. with 5% CO2.
(§2) Antrocin was dissolved in DMSO at a concentration of 10 mM and was stored in a dark-colored bottle at −20° C. as a stock solution. The stock was diluted to the required concentration with serum-free medium immediately before use. […]
(§3) Briefly, three breast cancer cells (MDA-MB-231, MCF-7 & MCF-10A) were seeded into 96-well plates in growth medium at 3000 cells/well for 24 h. […] Optical densities were read on a microplate reader (Molecular Devices, Sunnyvale, Calif.) at 562 nm.
(In general: Sulforhodamine B stains cellular protein and so reports cell mass.)

Data set [2] concerns normal foreskins fibroblast HS68 cells. In words: SRB assay, normal HS68 cells. The format is cell-based, human. The note with it: SRB assay (FIG. 2). How it is done:
(§4) Briefly, three breast cancer cells (MDA-MB-231, MCF-7 & MCF-10A) were seeded into 96-well plates in growth medium at 3000 cells/well for 24 h. Then, the cells were treated with antrocin at various concentrations (0, 0.5, 1, 3, 5 and 10 μM) for various periods of time. After the exposure period, the cells were fixed with TCA for 1 hour and stained with 100 μL of 0.4% (w/v) SRB for 10 minutes at room temperature. The bound dye was solubilized in 20 mM Tris base (100 μL/well) for 5 minutes on a shaker. Optical densities were read on a microplate reader (Molecular Devices, Sunnyvale, Calif.) at 562 nm.
(§5) The anti-proliferative effects of antrocin were assessed on human cancer cell lines, using the SRB assay, with normal foreskins fibroblast HS68 cells and non-tumorgenic breast epithelial MCF-10A cells as controls.

In data set [3] the test system is non-tumorgenic breast epithelial MCF-10A cells. Briefly: SRB assay, non-tumorgenic MCF-10A cells. The format is cell-based, human. The note with it: SRB assay (FIG. 2). On the procedure: as §1, §2, §3
The test system of data set [4] is MDA-MB-231 cells. In words: Cell cycle analysis by PI flow cytometry. The format is cell-based, human. The note with it: 48 hr, MDA-MB-231 (FIG. 5). How it is done:
A total of 2×10^5 MDA-MB-231 cells/dish were seeded onto each 60 mm dish and incubated for 24 h. Various concentration of antrocin were added to the culture media, and the cells were incubated for an additional 48 hr. Cells were harvested and fixed in cold 75% ethanol at 4° C. for 16 h and incubated with 20 μg/ml RNase A at 37° C. for 30 min and then with 40 μg/ml propidium iodide (PI) at 4° C. for 30 min. Samples were immediately analyzed with a FACSCalibur flow cytometer (Becton, Dickinson and Co., San Jose, Calif). Approximately 10,000 counts were made for each sample. The percentage distributions of apoptotic cells were calculated by CellQuest™ software (Becton, Dickinson and Co., San Jose, Calif.).
(In general: In flow cytometry, cells or beads pass a laser one at a time.)

For data set [5], the system named is MDA-MB-231 cells. Briefly: Cell morphology studies by phase microscopy. The format is cell-based, human. Particulars: 48 hr incubation, various concentration, phase-contrast microscope (FIG. 4). On the procedure:
After treatment with different dose of antrocin for 48 hr, the MDA-MB-231 cells, cultured on glass coverslips, were washed three times with PBS, fixed with 3% paraformaldehyde for 10 min at room temperature, and then washed in PBS again, and the morphological changes were observed. Cell morphology was then observed by phase microscopy.

The test system of data set [6] is human cancer cell lines (HT-29, HCT116, Huh7, A549, MCF7, MDA-MB-231). Briefly: SRB anti-proliferative assay on human cancer cell lines. The class given is cell-based. How it is done: Antrocin was dissolved in DMSO at a concentration of 10 mM and was stored in a dark-colored bottle at −20° C. as a stock solution. The stock was diluted to the required concentration with serum-free medium immediately before use. Before treatment with antrocin, the medium was removed when cells were about 70% confluent, the cells were starved overnight in serum-free medium and then exposed to antrocin at different concentrations (0-10 μM) and for different periods of time (0-48 h).
as §4, §5

Data set [7] deals with MDA-MB-231 human breast cancer cells. In words: SRB cytotoxicity assay, MDA-MB-231. The class given is cell-based. On the procedure: as §1, §2, §3

For `C=C1CCC2C(C)(C)CCCC23C(=O)OCC13` (centres unmarked) [antrocin], the “cell growth inhibition, MDA-MB-231 compared with MCF-7” value in data set [1] is given as “more effective in MDA-MB-231 cells in comparison with MCF-7”. Further, in data set [2], the “antiproliferative effect on HS68 cells” value is recorded as “no antiproliferative effect”. The “antiproliferative effect / growth inhibition on MCF-10A cells” value is given as “no antiproliferative effect” in data set [3] and “no significant inhibition” in data set [3] (listed as Antrocin). Further, the “progression to apoptosis (apoptotic cells)” value with MDA-MB-231 cells [4] (10 μM antrocin) turned out to be 58.3%. In the data set on MDA-MB-231 cells [4] (different dose), the cell cycle distribution entry was “accumulated progressively in subG1 phase”. The morphological alterations result in the data set on MDA-MB-231 cells [5] was “cell shrinkage, membrane blebbing, apoptotic body formation”. The “inhibition activity to cancer cell lines” value in data set [6] (HT-29, HCT116, Huh7, A549, MCF7, MDA-MB-231) is listed as “high inhibition activity”. Also, the “growth of cancer cells” value in data set [6] (SRB assay, all cancer cells tested (FIG. 1)) is listed as “inhibited in a concentration-dependent manner”. In addition, the “cell growth inhibition compared with doxorubicin or cisplatin” value in data set [7] (MDA-MB-231, 48 hr treatment, same dosage (FIG. 3)) is “more potent than doxorubicin or cisplatin”. In addition, the MDA-MB-231 cell growth entry in data set [7] (antrocin concentration of 0.5 μM) is “significantly inhibited”.
